We go through three compounds from US20090320718A1, “FLUOROSURFACTANTS” (priority 2006, published 2009).

This series in a line: Determination of the surface tension (Kruss tensiometer K12, ring method). It counts as physicochemical. The note with it: for surface tension: measurement solutions in deionised water, 20° C. On the procedure: • Instrument: Kruss tensiometer (model K12) • Temperature of the measurement solutions: 20° C. • Measurement module employed: ring • Concentration of the measurement solutions: about 0.5 to 3.0 g/l in deionised water
Further details on the method are given in the European Commission publication: Classification, Packaging and Labelling of Dangerous Substances in the European Union, Part II-Test Methods, Annex V-Methods for Determining the Physical-Chemical Properties, the Toxicity and the Ecotoxicity, Part A, Surface Tension (A.5), January 1997, pages 51-57, and also the OECD Guideline for the Testing of Chemicals, Section 1, Physical-Chemical Properties, method 115, pages 1-7, adopted: 27.07.95, the contents of which in this respect are expressly part of the disclosure content of the present application.

With `O=C(O)CCCCCCCCCCSCCC(F)(F)F` [Example 5c, 11-(3,3,3-Trifluoropropylsulfanyl)undecanoic acid], the “Surface tension of an aqueous solution of the sodium salt” value (at 0.016 mol/l, sodium salt (2 eq of NaOH/eq of carboxylic acid)) is given as 33.4 mN/m.
“11-(S-trifluoromethyl)mercaptoundecane-1-sulfonic acid sodium salt [CF3—S—(CH2)11—SO3Na]” yielded a surface tension (concentration: 99.8 mg/100 ml) of 31.29 mN/m.
For the compound `O=S(=O)([O-])CCCCCCCCCCCSCCC(F)(F)F.[Na+]` [CF3—CH2—CH2—S—(CH2)11—SO3Na], the surface tension (Concentration: 100.7 mg/100 ml) was determined as 38.55 mN/m.
